Source: ChEMBL document CHEMBL5625251, “Anti-influenza virus activities and mechanism of antrafenine analogs” (Eur J Med Chem, 2023)
Active and inactive are the calls of the source. The calls are words filed in the database; no cut-off is given here.

Assays:
Influenza A virus [1] = experiment: Antiviral activity against Influenza A virus A/WSN/33(H1N1) infected in MDCK cells assessed as inhibition of viral growth 12.5 uM pre-infected for 1 hr followed by compound addition and measured 24 hrs post infection by plaque assay relative to control; type: functional; details: for inhibition: time 23.0 hrs
[2] = Cytotoxicity against MDCK cells assessed as reduction in cell viability incubated for 48 hrs by MTT assay; type: toxicity, cell-based, Canis lupus familiaris; details: dog
Influenza A virus [3] = experiment: Antiviral activity against Influenza A virus A/WSN/33(H1N1) infected in MDCK cells assessed as inhibition of viral growth pre-infected for 1 hr followed by compound addition and measured 24 hrs post infection by plaque assay; type: functional, organism-based
Influenza A virus [4] = experiment: Antiviral activity against Influenza A virus A/WSN/33(H1N1) infected in MDCK cells assessed as inhibition of viral growth at 100 uM pre-infected for 1 hr followed by compound addition and measured 24 hrs post infection by plaque assay relative to control; type: functional; details: time 23 hrs
Influenza A virus [5] = experiment: Antiviral activity against Influenza A virus A/WSN/33(H1N1) infected in MDCK cells assessed as inhibition of viral growth at 6.25 uM pre-infected for 1 hr followed by compound addition and measured 24 hrs post infection by plaque assay relative to control; type: functional; details: time 23 hrs
Influenza A virus [6] = experiment: Antiviral activity against Influenza A virus A/WSN/33(H1N1) infected in MDCK cells assessed as inhibition of viral growth at 50 uM pre-infected for 1 hr followed by compound addition and measured 24 hrs post infection by plaque assay relative to control; type: functional; details: time 23 hrs
[7] = Selectivity index, ratio of CC50 for cytotoxicity against MDCK cells assessed as reduction in cell viability to IC50 for antiviral activity against Influenza A virus A/PR/8/34 infected in MDCK cells MOI 0.01 assessed as inhibition of viral growth; type: toxicity, cell-based; details: dog, read-out: Ratio CC50/IC50
Influenza A virus [8] = experiment: Antiviral activity against Influenza A virus A/WSN/33(H1N1) infected in chicken erythrocytes assessed as reduction in Haemagglutinin level preincubated for 30 mins followed by viral infection and measured after 40 mins; type: functional, organism-based; details: Erythrocyte, time 70.0 min
[9] = target: Polymerase acidic protein (Influenza A virus (A/Puerto Rico/8/1934(H1N1)), UniProt P03433); experiment: Binding affinity to C-terminal Influenza A virus Polymerase acidic protein assessed as dissociation constant by MST assay
Influenza A virus [10] = experiment: Antiviral activity against Influenza A virus A/WSN/33(H1N1) infected in MDCK cells assessed as reduction in virus-induced cytopathic effect at 100 uM pre-infected with cells for 1 hrs followed by compound addition and measured after 2 days by MTT assay; type: functional, organism-based; details: time 2.0 day
[11] = Selectivity index, ratio of CC50 for cytotoxicity against MDCK cells assessed as reduction in cell viability to IC50 for antiviral activity against Influenza A virus A/HK/1/68 infected in MDCK cells MOI 0.01 assessed as inhibition of viral growth; type: toxicity, cell-based; details: dog, read-out: Ratio CC50/IC50
Influenza A virus [12] = experiment: Antiviral activity against Influenza A virus A/WSN/33(H1N1) infected in MDCK cells MOI 0.1 assessed as reduction in viral titre at 100 uM pre-infected with cells for 6 hrs followed by compound addition and measured after 6 to 8 hrs post infection by time of addition assay; type: functional, organism-based
[13] = Cytotoxicity against African green monkey Vero cells assessed as reduction in cell viability incubated for 48 hrs by MTT assay; type: toxicity, cell-based; details: chlorocebus sabaeus
Influenza A virus [14] = experiment: Antiviral activity against Influenza A virus B/Florida/4/06 infected in MDCK cells MOI 0.01 assessed as inhibition of viral growth pre-infected for 1 hr followed by compound addition and measured 24 hrs post infection by plaque assay; type: functional, organism-based; details: B/Florida/4/06, MDCK
Influenza A virus [15] = experiment: Antiviral activity against Influenza A virus A/WSN/33(H1N1) infected in MDCK cells MOI 0.1 assessed as reduction in viral titre at 100 uM pre-infected with cells for 6 hrs followed by compound addition and measured after 2 hrs post infection by time of addition assay; type: functional, organism-based
Influenza A virus [16] = experiment: Antiviral activity against Influenza A virus A/WSN/33(H1N1) infected in chicken erythrocytes assessed as reduction in neuraminidase level incubated for 2 hrs; type: functional, organism-based; details: Erythrocyte
[17] = Inhibition of Influenza A virus A/WSN/33(H1N1) Ribonucleoprotein transfected in Vero cells incubated for 48 hrs by spectrophotometer analysis; type: cell-based
Nucleoprotein = Nucleoprotein (Influenza A virus (strain A/Wilson-Smith/1933 H1N1), UniProt P15682); experiment: Binding affinity to Influenza A virus Nucleoprotein assessed as dissociation constant by MST assay
Sequence of Nucleoprotein (P15682 whole entry): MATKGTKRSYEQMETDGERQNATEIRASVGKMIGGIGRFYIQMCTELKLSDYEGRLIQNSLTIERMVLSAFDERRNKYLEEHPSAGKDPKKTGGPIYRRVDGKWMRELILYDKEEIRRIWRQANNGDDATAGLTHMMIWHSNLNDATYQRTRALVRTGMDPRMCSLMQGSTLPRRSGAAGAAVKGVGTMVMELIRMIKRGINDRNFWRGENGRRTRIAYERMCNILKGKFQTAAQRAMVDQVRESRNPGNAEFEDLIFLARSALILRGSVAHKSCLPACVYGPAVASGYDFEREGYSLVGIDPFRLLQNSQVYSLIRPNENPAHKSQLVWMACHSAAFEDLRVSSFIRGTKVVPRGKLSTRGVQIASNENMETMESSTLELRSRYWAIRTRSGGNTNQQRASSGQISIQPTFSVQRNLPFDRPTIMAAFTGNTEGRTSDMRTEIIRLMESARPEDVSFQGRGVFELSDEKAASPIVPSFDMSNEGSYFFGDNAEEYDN

[18] = Selectivity index, ratio of CC50 for cytotoxicity against MDCK cells assessed as reduction in cell viability to IC50 for antiviral activity against Influenza A virus B/Florida/4/06 infected in MDCK cells MOI 0.01 assessed as inhibition of viral growth; type: toxicity, cell-based; details: dog, read-out: Ratio CC50/IC50
[19] = Selectivity index, ratio of CC50 for cytotoxicity against African green monkey Vero cells assessed as reduction in cell viability to IC50 for inhibition of Influenza A virus A/WSN/33(H1N1) Ribonucleoprotein transfected in Vero cells; type: toxicity, cell-based; details: read-out: Ratio CC50/IC50
Influenza A virus [20] = experiment: Antiviral activity against Influenza A virus A/WSN/33(H1N1) infected in MDCK cells MOI 0.1 assessed as reduction in viral titre at 100 uM pre-infected with cells for 6 hrs followed by compound addition and measured after 4 to 6 hrs post infection by time of addition assay; type: functional, organism-based
Influenza A virus [21] = experiment: Antiviral activity against Influenza A virus A/HK/1/68 infected in MDCK cells MOI 0.01 assessed as inhibition of viral growth pre-infected for 1 hr followed by compound addition and measured 24 hrs post infection by plaque assay; type: functional, organism-based; details: A/HK/1/68, MDCK
Influenza A virus [22] = experiment: Antiviral activity against Influenza A virus A/WSN/33(H1N1) infected in MDCK cells MOI 0.1 assessed as reduction in viral titre at 100 uM pre-infected with cells for 6 hrs followed by compound addition and measured after 2 to 4 hrs post infection by time of addition assay; type: functional, organism-based
[23] = Selectivity index, ratio of CC50 for cytotoxicity against MDCK cells assessed as reduction in cell viability to IC50 for antiviral activity against Influenza A virus A/WSN/33(H1N1) infected in MDCK cells assessed as inhibition of viral growth; type: toxicity, cell-based; details: dog, read-out: Ratio CC50/IC50
Influenza A virus [24] = experiment: Antiviral activity against Influenza A virus A/PR/8/34 infected in MDCK cells MOI 0.01 assessed as inhibition of viral growth pre-infected for 1 hr followed by compound addition and measured 24 hrs post infection by plaque assay; type: functional, organism-based; details: A/PR/8/34, MDCK
MDCK = experiment: Cytotoxicity against MDCK cells assessed as reduction in cell viability at 12.5 uM incubated for 48 hrs by MTT assay; type: toxicity, cell-based, Canis lupus familiaris; details: dog

CN(C)CCNC(=O)c1ccccc1Nc1ccnc2cc(C(F)(F)F)ccc12
inhibition (Influenza A virus [1]): inactive
CC50 at 48 h [2]: 17.4 µM

O=C(CNC(=O)c1ccccc1Nc1ccnc2cc(C(F)(F)F)ccc12)NCc1ccccc1
CC50 at 48 h [2]: > 100 µM

CCC(CC)O[C@@H]1C=C(C(=O)O)C[C@H](N)[C@H]1NC(C)=O [OSELTAMIVIR CARBOXYLATE]
IC50 (Influenza A virus [3]): 9e-06 µM

O=C(NCC(=O)N1CCOCC1)c1ccccc1Nc1ccnc2ccc(Cl)cc12
inhibition at 100 µM (Influenza A virus [4]): 65.4%
CC50 at 48 h [2]: > 100 µM

CCN(CC)CCCNC(=O)c1ccccc1Nc1ccnc2ccc(Cl)cc12
inhibition at 6.25 µM (Influenza A virus [5]): 15.3%
CC50 at 48 h [2]: 38 µM

O=C(CNC(=O)c1ccccc1Nc1ccnc2cc(C(F)(F)F)ccc12)NC1CCCCC1
CC50 at 48 h [2]: > 100 µM
inhibition at 50 µM (Influenza A virus [6]): 69.3%

O=C(NCCN1CCN(c2ccccc2OC(F)(F)F)CC1)c1ccccc1Nc1ccnc2ccc(Cl)cc12
CC50 at 48 h [2]: > 100 µM
inhibition at 50 µM (Influenza A virus [6]): 50%

O=C(O)c1ccccc1Nc1ccnc2cc(C(F)(F)F)ccc12
selectivity ratio [7]: > 9
Activity (Influenza A virus [8]): inactive
Kd [9]: 8.36 µM
inhibition at 100 µM (Influenza A virus [4]): 97.3%
Activity (Influenza A virus [10]): Active
selectivity ratio [11]: > 4
Activity (Influenza A virus [12]): inactive
CC50 at 48 h [13]: > 200 µM
IC50 (Influenza A virus [14]): 22.3 µM
Activity (Influenza A virus [15]): Active
CC50 at 48 h [2]: > 100 µM
Activity (Influenza A virus [16]): inactive
IC50 (Influenza A virus [3]): 6.73 µM
IC50 [17]: 19.2 µM
Kd (Nucleoprotein): 20.4 µM
selectivity ratio [18]: > 4
selectivity ratio [19]: > 10
Activity (Influenza A virus [20]): Active
IC50 (Influenza A virus [21]): 27.8 µM
Activity (Influenza A virus [22]): Active
selectivity ratio [23]: > 15
IC50 (Influenza A virus [24]): 11.3 µM

Cc1ccc(N2CCN(CCNC(=O)c3ccccc3Nc3ccnc4ccc(Cl)cc34)CC2)c(C)c1
CC50 at 48 h [2]: 22.9 µM

O=C(NCCCN1CCOCC1)c1ccccc1Nc1ccnc2cc(C(F)(F)F)ccc12
inhibition at 100 µM (Influenza A virus [4]): 99.9%
CC50 at 48 h [2]: > 100 µM

COC(=O)c1ccccc1Nc1ccnc2cc(C(F)(F)F)ccc12
inhibition at 100 µM (Influenza A virus [4]): 17.9%
CC50 at 48 h [2]: > 100 µM

CC(C)NC(=O)c1ccccc1Nc1ccnc2cc(C(F)(F)F)ccc12
CC50 at 48 h [2]: > 100 µM

O=C(CNC(=O)c1ccccc1Nc1ccnc2ccc(Cl)cc12)NCc1ccccc1
Activity (Influenza A virus [10]): Active
CC50 at 48 h [2]: > 100 µM

NC(=O)c1ccccc1Nc1ccnc2cc(C(F)(F)F)ccc12
CC50 at 48 h [2]: > 100 µM

O=C(OCCN1CCN(c2cccc(C(F)(F)F)c2)CC1)c1ccccc1Nc1ccnc2cc(C(F)(F)F)ccc12 [ANTRAFENINE]
CC50 at 48 h [2]: > 100 µM

CCOC(=O)c1ccccc1Nc1ccnc2cc(C(F)(F)F)ccc12
inhibition at 100 µM (Influenza A virus [4]): 9.09%
CC50 at 48 h [2]: > 100 µM

O=C(c1ccccc1Nc1ccnc2cc(C(F)(F)F)ccc12)N1CCOCC1
CC50 at 48 h [2]: > 100 µM

O=C(O)c1ccccc1Nc1ccnc2ccc(Cl)cc12
CC50 at 48 h [2]: > 100 µM
inhibition at 50 µM (Influenza A virus [6]): 3.5%

O=C(NCCN1CCN(c2ccccc2)CC1)c1ccccc1Nc1ccnc2ccc(Cl)cc12
inhibition (Influenza A virus [1]): inactive
Activity (Influenza A virus [10]): Active
CC50 at 48 h [2]: > 100 µM

O=C(Nc1cccc([N+](=O)[O-])c1)c1ccccc1Nc1ccnc2ccc(Cl)cc12
Activity (MDCK): Toxic
inhibition at 6.25 µM (Influenza A virus [5]): 21.4%

O=C(NC1CCCCC1)c1ccccc1Nc1ccnc2cc(C(F)(F)F)ccc12
inhibition at 12.5 µM (Influenza A virus [1]; time 23 hrs): 41.3%
CC50 at 48 h [2]: > 50 µM
